Experimental data from the NIST ThermoML archive (doi:10.1021/je200508x).

Experiment: molar heat capacity at constant pressure
Details: 101.33 kPa, Crystal, Vacuum adiabatic calorimetry

C=C(C)C(=O)[O][Sb]([O]C(=O)C(=C)C)([c]1ccccc1)([c]1ccccc1)[c]1ccccc1 [triphenyl-.lambda.5-stibanediyl bis(2-methylacrylate)]
Details | molar heat capacity at constant pressure [J/K/mol]
130 K | 297.4
130.59 K | 298.4
132.7 K | 302.2
135.08 K | 306.4
139.6 K | 313.7
140 K | 314.6
141.3 K | 316.8
143.4 K | 321
145.22 K | 324.6
147.6 K | 328.9
149.99 K | 333.6
150 K | 333.6
152.36 K | 347.2
154.75 K | 352.6
157.14 K | 362.4
159.53 K | 372.2
160 K | 372.6
161.92 K | 369.5
164.34 K | 355.3
166.76 K | 356.4
169.15 K | 360
170 K | 361.2
171.6 K | 363.4
173.9 K | 366.7
175.85 K | 369.5
178.25 K | 372.5
180 K | 375.2
180.65 K | 376.2
183.05 K | 379.6
184.24 K | 380.9
187.35 K | 385.8
190 K | 389.6
190.9 K | 391.1
194.06 K | 395.5
197.17 K | 400.2
200 K | 404.7
200.73 K | 406
204.87 K | 412.6
209.58 K | 420
210 K | 420.5
214.29 K | 427
218.98 K | 434.2
220 K | 436.3
223.67 K | 442.1
228.35 K | 449.1
230 K | 451.7
232.58 K | 456.1
236.01 K | 461
240 K | 466.6
240.06 K | 466.4
244.71 K | 473.3
249.36 K | 480
250 K | 481.2
252.66 K | 484.9
256.66 K | 491.7
260 K | 496.3
261.29 K | 497.9
265.91 K | 505.5
270 K | 511.1
270.5 K | 511.7
275.08 K | 518.7
277.79 K | 522.4
280 K | 525.9
281.19 K | 527.2
284.56 K | 532.8
287.93 K | 538.8
290 K | 541.9
291.28 K | 544
294.6 K | 550.2
297.91 K | 555.7
298.15 K | 555.9
300 K | 559.1
301.2 K | 561.8
304.48 K | 566.7
307.74 K | 572.1
310 K | 576.3
310.99 K | 577.4
314.22 K | 583.3
317.43 K | 588.2
320 K | 592
320.63 K | 592.8
323.81 K | 597.8
327.25 K | 602.8
330 K | 607
330.43 K | 607
332.9 K | 611.4
334.78 K | 614.7
340 K | 621
350 K | 635
360 K | 649
370 K | 664
380 K | 679
390 K | 694
400 K | 709
